The values below come from PubChem BioAssay (NCI).

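Results reflect a 48-hour exposure of cells in 96-well plates to compound at five concentrations. GI50 = concentration required for 50% inhibition of growth. Definition used: TGI = concentration required for complete inhibition of growth.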 Where only a bound is given, the exact number is not on record here.

Among the test systems are HL-60(TB) leukemia; HCT-15 colon; SF-295 CNS; SK-OV-3 ovarian; M14 melanoma; SK-MEL-2 melanoma; OVCAR-8 ovarian; IGROV1 ovarian; UACC-62 melanoma; CCRF-CEM leukemia.
Common to all, as to experiment: growth of human tumour cells (NCI), 48 h

Take `CCOC(=O)c1c(CN2CCCC2)n(-c2ccccc2)c2cc(Br)c(OC)cc12`: the TGI stood at 36 µM in the assay on HL-60(TB) leukemia; 34.1 µM with HCT-15 colon; 30.4 µM in the assay on SF-295 CNS; 78.3 µM in the assay with SK-OV-3 ovarian; 36.6 µM with M14 melanoma; 38.3 µM with SK-MEL-2 melanoma. Further, the TGI is greater than 100 µM with OVCAR-8 ovarian, 45.6 µM with IGROV1 ovarian, 23.8 µM in the assay with UACC-62 melanoma and 30.6 µM in the assay on CCRF-CEM leukemia.
Consider `Nc1nc(=O)n(CC(O)CO)s1` (configuration not stated), for which the TGI with HL-60(TB) leukemia, in the assay with HCT-15 colon, in the assay on SF-295 CNS, with M14 melanoma, in the assay with SK-MEL-2 melanoma and in the assay with OVCAR-8 ovarian was greater than 100 µM throughout. Besides, the TGI with IGROV1 ovarian, in the assay on UACC-62 melanoma and in the assay with CCRF-CEM leukemia was greater than 100 µM each time.
Turning to `CNC(=O)Nc1ccccc1`, the TGI in the assay on HL-60(TB) leukemia, in the assay with HCT-15 colon, with SF-295 CNS, in the assay on M14 melanoma, in the assay on SK-MEL-2 melanoma and in the assay on OVCAR-8 ovarian was greater than 100 µM in each case. The TGI in the assay with IGROV1 ovarian, in the assay on UACC-62 melanoma and in the assay with CCRF-CEM leukemia was greater than 100 µM each time.
On to `COc1cc2c(cc1OCCCN1CCN(c3ncnc4ccccc34)CC1)N=CC1CCCN1C2=O` (configuration not stated), for which the GI50 in the assay with HL-60(TB) leukemia was 0.0307 µM; in the assay with SF-295 CNS it was 0.0258 µM; in the assay on SK-OV-3 ovarian it was 0.0326 µM; with M14 melanoma, 0.0303 µM; in the assay with SK-MEL-2 melanoma it was 0.0646 µM; in the assay with OVCAR-8 ovarian, 0.043 µM. In addition, the GI50 is 0.0126 µM in the assay on IGROV1 ovarian, 0.018 µM in the assay on UACC-62 melanoma and less than 0.0146 µM with CCRF-CEM leukemia. Moreover, the TGI is 0.0545 µM in the assay on SF-295 CNS; 6.78 µM in the assay with SK-OV-3 ovarian; 0.138 µM with M14 melanoma; 0.512 µM in the assay on SK-MEL-2 melanoma; greater than 53.6 µM in the assay on OVCAR-8 ovarian; 0.0269 µM with IGROV1 ovarian. Moreover, the results for the TGI in the assay on UACC-62 melanoma and in the assay with CCRF-CEM leukemia were 0.0379 µM and 0.48 µM, respectively.
Turning to `O=c1/c(=C/c2ccc([N+](=O)[O-])o2)sc2n1[C@@H](c1ccc3c(c1)OCO3)C=C(c1cc(F)c(Cl)cc1Cl)N=2`, the TGI was 45.5 µM with HL-60(TB) leukemia; 64.9 µM in the assay with HCT-15 colon; greater than 100 µM in the assay on SF-295 CNS; greater than 100 µM in the assay on SK-OV-3 ovarian; 31.8 µM with M14 melanoma; 83 µM in the assay on SK-MEL-2 melanoma. The TGI in the assay with OVCAR-8 ovarian amounted to 56.4 µM; with IGROV1 ovarian it was 33.4 µM; in the assay on UACC-62 melanoma, 34 µM; with CCRF-CEM leukemia it was 10.5 µM.
Consider `N#C[S-].[Ce+3].c1cnc2c(c1)ccc1cccnc12.c1cnc2c(c1)ccc1cccnc12.c1cnc2c(c1)ccc1cccnc12`, for which the TGI in the assay on HL-60(TB) leukemia is 48.3 µM; in the assay with SF-295 CNS it was 1.45 µM; in the assay with SK-OV-3 ovarian, 13.5 µM; in the assay with M14 melanoma, 3.42 µM; with OVCAR-8 ovarian it was 17.5 µM; in the assay with IGROV1 ovarian, greater than 100 µM. This molecule registered a TGI in the assay with UACC-62 melanoma of 10.1 µM.
On to `O=C(NNC(=O)c1nsc2ccccc12)c1ccc(Cl)cc1`, for which the TGI is 49.8 µM with HL-60(TB) leukemia; 36.4 µM in the assay with HCT-15 colon; 36.9 µM in the assay on M14 melanoma; 45.7 µM in the assay with SK-MEL-2 melanoma; 72.8 µM in the assay on OVCAR-8 ovarian; greater than 100 µM in the assay with IGROV1 ovarian. In the assay on CCRF-CEM leukemia, this molecule came in with a TGI of 38.1 µM.
Regarding `NC(CC(=O)O)(Cc1ccccc1)C(=O)O` (configuration not stated), the TGI in the assay with HL-60(TB) leukemia, in the assay with HCT-15 colon, in the assay with SF-295 CNS, in the assay on SK-OV-3 ovarian, in the assay on M14 melanoma and in the assay with SK-MEL-2 melanoma was greater than 100 µM throughout. Besides, the TGI in the assay on OVCAR-8 ovarian, with IGROV1 ovarian, with UACC-62 melanoma and in the assay with CCRF-CEM leukemia was greater than 100 µM in each case.
Turning to `C[N+](C)(CCO)CCN1c2ccccc2Sc2ccccc21`, the TGI in the assay with HL-60(TB) leukemia, in the assay on HCT-15 colon, in the assay with SF-295 CNS, in the assay with SK-OV-3 ovarian, with M14 melanoma and with SK-MEL-2 melanoma was greater than 10 µM in each case. Besides, the TGI with OVCAR-8 ovarian, in the assay on IGROV1 ovarian, in the assay on UACC-62 melanoma and in the assay with CCRF-CEM leukemia was greater than 10 µM each time.
Turning to `Fc1c(F)c(C(F)(F)F)c(F)c(F)c1N/N=C/c1cn(Cc2ccccc2)c2ccccc12`, the TGI is 52.6 µM in the assay on HL-60(TB) leukemia; greater than 100 µM in the assay on HCT-15 colon; 36.2 µM in the assay with SF-295 CNS; 48.4 µM with SK-OV-3 ovarian; 43 µM in the assay with M14 melanoma; 55.7 µM in the assay with SK-MEL-2 melanoma. The TGI is greater than 100 µM in the assay on OVCAR-8 ovarian, greater than 100 µM in the assay with IGROV1 ovarian, 61.5 µM in the assay with UACC-62 melanoma and 48.4 µM in the assay with CCRF-CEM leukemia.
Regarding `COc1ccc(C)cc1Nc1nnc(-c2ccc(N)cc2)s1`, the TGI in the assay with HL-60(TB) leukemia, in the assay on HCT-15 colon, with SF-295 CNS, in the assay on SK-OV-3 ovarian, in the assay with M14 melanoma and in the assay on SK-MEL-2 melanoma was greater than 100 µM throughout. The TGI in the assay on OVCAR-8 ovarian, with IGROV1 ovarian, with UACC-62 melanoma and in the assay on CCRF-CEM leukemia was greater than 100 µM each time.
For `COc1ccc2c(c1)CC[C@@H]1[C@@H]2CC[C@]2(C)C(=O)/C(=C/c3ccc(O)c(OC)c3)C[C@@H]12`, the TGI was greater than 100 µM in the assay on HL-60(TB) leukemia; 72.6 µM in the assay with HCT-15 colon; greater than 100 µM in the assay on SF-295 CNS; greater than 100 µM with SK-OV-3 ovarian; greater than 100 µM with M14 melanoma; greater than 100 µM in the assay with SK-MEL-2 melanoma. The TGI with OVCAR-8 ovarian, in the assay with IGROV1 ovarian, with UACC-62 melanoma and with CCRF-CEM leukemia was greater than 100 µM throughout.
Regarding `Cn1c(=O)c2c(nc(NCCNc3nc4c(c(=O)n(C)c(=O)n4C)n3C)n2C)n(C)c1=O`, the TGI with HCT-15 colon, in the assay on SF-295 CNS, with M14 melanoma, in the assay with SK-MEL-2 melanoma, in the assay with OVCAR-8 ovarian and in the assay with IGROV1 ovarian was greater than 100 µM throughout. For the same molecule, the TGI in the assay with UACC-62 melanoma and with CCRF-CEM leukemia was greater than 100 µM in each case.
`O=C(COc1ccc(Cl)cc1Cl)N/N=C/C=C/c1ccc([N+](=O)[O-])o1`: the TGI was greater than 100 µM with HL-60(TB) leukemia; greater than 100 µM with HCT-15 colon; greater than 100 µM in the assay on SF-295 CNS; 59.6 µM with SK-OV-3 ovarian; greater than 100 µM in the assay on M14 melanoma; greater than 100 µM in the assay on SK-MEL-2 melanoma. The TGI in the assay with OVCAR-8 ovarian is 76.6 µM; in the assay on IGROV1 ovarian, 6.79 µM; in the assay with UACC-62 melanoma, greater than 100 µM; in the assay on CCRF-CEM leukemia, 15.2 µM.
For the molecule `O=S(O)c1cc(Cl)cc(Cl)c1OCc1ccccc1`, the TGI in the assay on HL-60(TB) leukemia, with SK-OV-3 ovarian, with M14 melanoma, in the assay on SK-MEL-2 melanoma, in the assay on UACC-62 melanoma and in the assay with CCRF-CEM leukemia was greater than 100 µM each time.
Regarding `COc1ccc(C2=NN(C(=O)c3cccnc3)C(O)(c3cc(F)c(Cl)cc3Cl)C2)cc1OC` (configuration not stated), the TGI in the assay with HL-60(TB) leukemia was determined as 40.9 µM; in the assay on HCT-15 colon, 35 µM; in the assay with SF-295 CNS, 39 µM; in the assay on SK-OV-3 ovarian it was 86.7 µM; with M14 melanoma, 34.6 µM; in the assay with SK-MEL-2 melanoma, 32 µM. In addition, the values for the TGI in the assay with OVCAR-8 ovarian, in the assay with IGROV1 ovarian and in the assay with CCRF-CEM leukemia were 35.7 µM, 30.5 µM and greater than 100 µM, respectively.
